The subject of assay [1] is PTPN2. Kind of assay: HiBiT-Degradation B16F10.4 PTPN2. Particulars: B16F10.4 cells, 24.0 hours. The class given is cell-based. (In general: The HiBiT peptide binds its large partner to form an active luciferase.)
Assay [2] has as its target T1, PTPN2 (Homo sapiens, UniProt P17706).
T1 construct: expressed in transfected cells; host or cells: 293T (293T.109 HiBiT-PTPN2 line; parental 293T WT from ATCC)
T1 sequence (P17706 1-415): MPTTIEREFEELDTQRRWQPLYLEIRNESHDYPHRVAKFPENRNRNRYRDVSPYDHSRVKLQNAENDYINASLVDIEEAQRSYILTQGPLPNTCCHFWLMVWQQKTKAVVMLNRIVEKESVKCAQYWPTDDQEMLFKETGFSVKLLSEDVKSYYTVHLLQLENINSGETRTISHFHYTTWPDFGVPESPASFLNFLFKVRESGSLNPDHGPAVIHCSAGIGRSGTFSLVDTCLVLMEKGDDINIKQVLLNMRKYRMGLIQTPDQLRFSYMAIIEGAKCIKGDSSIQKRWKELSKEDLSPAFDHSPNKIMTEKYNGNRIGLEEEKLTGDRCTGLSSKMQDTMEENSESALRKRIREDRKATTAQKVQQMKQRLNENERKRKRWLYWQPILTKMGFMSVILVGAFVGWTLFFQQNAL
Kind of assay: HiBiT-Degradation 293T.109 PTPN2 (Nano-Glo HiBiT Lytic Assay). The class given is cell-based. To be noted: 293T.109 (HiBiT-PTPN2) cells, 24.0 hours. Summed up: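 293T cells ectopically expressing N-terminally HiBiT-tagged PTPN2 were seeded at 5000 cells/well. They were treated with an 11-point half-log titration from 10 μM, in duplicate, for 24 hours at 37° C., 5% CO2. Remaining tagged PTPN2 was quantified by lytic HiBiT luminescence against untreated and no-reagent controls.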

By DC50 is commonly meant the concentration at which degradation of the target reaches its halfway point. A higher DC50 goes with degradation only at high concentration.

For `Cn1c(=O)n(C2CCC(=O)NC2=O)c2ccc(C3CCN(CC(=O)N4CCN(c5ccc6cc(O)c(N7CC(=O)NS7(=O)=O)c(F)c6c5)CC4)CC3)cc21` (stereo not shown) [Example 156, 3-[5-[1-[2-[4-[8-fluoro-6-hydroxy-7-(1,1,4-trioxo-1,2,5-thiadiazolidin-2-yl)-2-naphthyl]piperazin-1-yl]-2-oxo-ethyl]-4-piperidyl]-3-methyl-2-oxo-benzimidazol-1-yl]piperidine-2,6-dione], the results for the DC50 in the assay with PTPN2 [1] and at PTPN2 [2] were 200 to 1000 nM and 10 to 50 nM, respectively.
The matching figures for `Cn1c(=O)n(C2CCC(=O)NC2=O)c2ccc(C3CCN(CC(C)(C)CCOc4ccc5cc(O)c(N6CC(=O)NS6(=O)=O)c(F)c5c4)CC3)cc21` (stereo not shown) [Example 157, 3-[5-[1-[4-[[8-fluoro-6-hydroxy-7-(1,1,4-trioxo-1,2,5-thiadiazolidin-2-yl)-2-naphthyl]oxy]-2,2-dimethyl-butyl]-4-piperidyl]-3-methyl-2-oxo-benzimidazol-1-yl]piperidine-2,6-dione]: 50 to 200 nM and 10 to 50 nM.
For `O=C1CCC(N2C(=O)c3cccc4c(C5CCN(CC(=O)N6CC(Oc7ccc8cc(O)c(N9CC(=O)NS9(=O)=O)c(F)c8c7)C6)CC5)ccc2c34)C(=O)N1` (stereo not shown) [Example 158, 3-[6-[1-[2-[3-[[8-fluoro-6-hydroxy-7-(1,1,4-trioxo-1,2,5-thiadiazolidin-2-yl)-2-naphthyl]oxy]azetidin-1-yl]-2-oxo-ethyl]-4-piperidyl]-2-oxo-benzo[cd]indol-1-yl]piperidine-2,6-dione], in that order: 50 to 200 nM and 10 to 50 nM.
For `Cn1c(=O)n(C2CCC(=O)NC2=O)c2ccc(N3CCN(CC(=O)Nc4ccc5c(F)c(N6CC(=O)NS6(=O)=O)c(O)cc5c4)CC3)cc21` (stereo not shown) [Example 159, 2-[4-[1-(2,6-dioxo-3-piperidyl)-3-methyl-2-oxo-benzimidazol-5-yl]piperazin-1-yl]-N-[5-fluoro-7-hydroxy-6-(1,1,4-trioxo-1,2,5-thiadiazolidin-2-yl)-2-naphthyl]acetamide], in that order: 50 to 200 nM and 50 to 200 nM.
On to `Cn1c(=O)n(C2CCC(=O)NC2=O)c2ccc(C3CN(CC(=O)Nc4ccc5c(F)c(N6CC(=O)NS6(=O)=O)c(O)cc5c4)C3)cc21` (stereo not shown) [Example 160, 2-[3-[1-(2,6-dioxo-3-piperidyl)-3-methyl-2-oxo-benzimidazol-5-yl]azetidin-1-yl]-N-[5-fluoro-7-hydroxy-6-(1,1,4-trioxo-1,2,5-thiadiazolidin-2-yl)-2-naphthyl]acetamide], for which the values for the 50% degradation concentration (DC50) in the assay with PTPN2 [1] and at PTPN2 [2] were 200 to 1000 nM and 10 to 50 nM, respectively.
As for `Cn1c(=O)n(C2CCC(=O)NC2=O)c2ccc(C3CN(CC(=O)NCCOc4ccc5cc(O)c(N6CC(=O)NS6(=O)=O)c(F)c5c4)C3)cc21` (stereo not shown) [Example 161, 2-[3-[1-(2,6-dioxo-3-piperidyl)-3-methyl-2-oxo-benzimidazol-5-yl]azetidin-1-yl]-N-[2-[[8-fluoro-6-hydroxy-7-(1,1,4-trioxo-1,2,5-thiadiazolidin-2-yl)-2-naphthyl]oxy]ethyl]acetamide], the 50% degradation concentration (DC50) in the assay with PTPN2 [1] and at PTPN2 [2] was 200 to 1000 nM each time.
In the case of `Cn1c(=O)n(C2CCC(=O)NC2=O)c2ccc(C3CCN(CC(=O)N4CC[C@@H](COc5ccc6cc(O)c(N7CC(=O)NS7(=O)=O)c(F)c6c5)C4)CC3(F)F)cc21` (stereo partly drawn) [Example 162, 3-[5-[3,3-difluoro-1-[2-[(3R)-3-[[8-fluoro-6-hydroxy-7-(1,1,4-trioxo-1,2,5-thiadiazolidin-2-yl)-2-naphthyl]oxymethyl]pyrrolidin-1-yl]-2-oxo-ethyl]-4-piperidyl]-3-methyl-2-oxo-benzimidazol-1-yl]piperidine-2,6-dione], the DC50 with PTPN2 [1] fell in the range of 50 to 200 nM; on PTPN2 [2], 10 to 50 nM.
For `Cn1nc([C@@H]2CCC(=O)NC2=O)c2ccc(N3CCC(CC(=O)Nc4ccc5c(F)c(N6CC(=O)NS6(=O)=O)c(O)cc5c4)CC3)cc21` [Example 163, 2-[1-[3-[(3S)-2,6-dioxo-3-piperidyl]-1-methyl-indazol-6-yl]-4-piperidyl]-N-[5-fluoro-7-hydroxy-6-(1,1,4-trioxo-1,2,5-thiadiazolidin-2-yl)-2-naphthyl]acetamide], in that order: 10 to 50 nM and 10 to 50 nM.

The record behind these values is patent publication US20240383886A1, “Protein Tyrosine Phosphatase Degraders and Methods of Use Thereof” (CALICO LIFE SCIENCES LLC, priority 2019, published 2024).
